Laboratory results: ChEMBL document CHEMBL1135241 (Bioorg Med Chem Lett, 2002)
pIC50, pKi: −log10 of the molar value.

Legend:
[1] = molecular target: Delta-type opioid receptor (Rattus norvegicus, UniProt P33533); experiment: Binding affinity against Opioid receptor delta 1 using [3H]DT in rat brain synaptosomes was determined; type: subcellular
[2] = molecular target: Mu-type opioid receptor (Cavia porcellus, UniProt P97266); experiment: In vitro biological activity by electrically induced smooth muscle contractions in guinea pig ileum (Opioid receptor mu 1); inhibitory concentration was evaluated; type: functional, tissue-based
[3] = molecular target: Delta-type opioid receptor (Mus musculus, UniProt P32300); experiment: In vitro biological activity by electrically induced smooth muscle contractions in mouse vas deferens (Opioid receptor delta 1); inhibitory concentration was evaluated; type: functional
[4] = Ratio of inhibitory concentration of guinea pig ileum to mouse vas deferens was determined; type: functional
[5] = molecular target: Mu-type opioid receptor (Rattus norvegicus, UniProt P33535); experiment: Binding affinity against Opioid receptor mu 1 using [3H]DAMGO in rat brain synaptosomes was determined; type: subcellular
Chain of Mu-type opioid receptor (Rattus norvegicus, UniProt P33535) (P33535 whole entry): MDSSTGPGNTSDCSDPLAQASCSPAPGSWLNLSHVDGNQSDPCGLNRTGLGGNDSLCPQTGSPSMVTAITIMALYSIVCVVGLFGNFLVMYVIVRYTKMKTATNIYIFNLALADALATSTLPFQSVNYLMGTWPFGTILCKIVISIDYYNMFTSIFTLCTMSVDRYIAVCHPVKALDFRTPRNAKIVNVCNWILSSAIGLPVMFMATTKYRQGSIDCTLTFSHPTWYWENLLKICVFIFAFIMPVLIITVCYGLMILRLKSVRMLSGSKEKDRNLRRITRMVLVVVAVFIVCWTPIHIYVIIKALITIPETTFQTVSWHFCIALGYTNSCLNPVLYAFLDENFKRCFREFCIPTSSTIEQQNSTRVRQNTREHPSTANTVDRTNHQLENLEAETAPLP

Chain of Mu-type opioid receptor (Cavia porcellus, UniProt P97266) (P97266 whole entry): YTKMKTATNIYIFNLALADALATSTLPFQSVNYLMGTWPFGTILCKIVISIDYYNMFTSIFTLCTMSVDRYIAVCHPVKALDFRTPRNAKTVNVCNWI
Chain of Delta-type opioid receptor (Rattus norvegicus, UniProt P33533) (P33533 whole entry): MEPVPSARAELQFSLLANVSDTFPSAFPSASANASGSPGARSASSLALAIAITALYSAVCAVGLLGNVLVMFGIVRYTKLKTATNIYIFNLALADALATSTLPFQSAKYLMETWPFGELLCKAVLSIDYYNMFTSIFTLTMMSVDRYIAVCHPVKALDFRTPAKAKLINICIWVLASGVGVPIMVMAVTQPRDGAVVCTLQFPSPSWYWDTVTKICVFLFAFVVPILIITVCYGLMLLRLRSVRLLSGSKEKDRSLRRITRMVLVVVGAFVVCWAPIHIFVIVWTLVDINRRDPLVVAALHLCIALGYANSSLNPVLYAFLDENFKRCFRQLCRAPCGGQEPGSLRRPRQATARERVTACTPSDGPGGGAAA
Chain of Delta-type opioid receptor (Mus musculus, UniProt P32300) (P32300 whole entry): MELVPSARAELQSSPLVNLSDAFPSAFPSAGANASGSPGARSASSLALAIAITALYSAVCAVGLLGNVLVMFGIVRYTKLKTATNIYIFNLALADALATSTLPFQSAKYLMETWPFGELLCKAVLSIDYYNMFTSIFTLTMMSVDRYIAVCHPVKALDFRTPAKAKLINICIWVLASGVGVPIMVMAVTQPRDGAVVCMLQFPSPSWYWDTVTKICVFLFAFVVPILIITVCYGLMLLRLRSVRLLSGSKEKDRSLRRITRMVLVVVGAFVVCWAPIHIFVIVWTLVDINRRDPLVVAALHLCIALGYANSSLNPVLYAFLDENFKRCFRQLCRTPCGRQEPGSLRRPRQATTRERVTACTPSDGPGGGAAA

| Structure (SMILES) | pKi [1] | pIC50 [2] | pIC50 [3] | Ratio [4] | pKi [5] |
| --- | --- | --- | --- | --- | --- |
| Cc1cccc(C)c1C[C@H](NC(=O)[C@H](C)NC(=O)[C@@H](N)Cc1ccc(O)cc1)C(=O)NCC(=O)N[C@@H](Cc1ccc(O)cc1)C(=O)N1CCC[C@H]1C(=O)N[C@@H](CO)C(N)=O | 7.34 | 8.92 | – | – | – |
| Cc1cccc(C)c1C[C@@H](NC(=O)[C@@H](C)NC(=O)[C@@H](N)Cc1ccc(O)cc1)C(=O)NCC(=O)N[C@@H](Cc1ccc(O)cc1)C(=O)N1CCC[C@H]1C(=O)N[C@@H](CO)C(N)=O | 5.48 | 7.35 | – | – | – |
| Cc1cccc(C)c1C[C@H](NC(=O)[C@H](C)NC(=O)[C@@H](N)Cc1ccc(O)cc1)C(=O)N[C@@H](CCC(=O)O)C(=O)N[C@H](C(=O)N[C@H](C(=O)NCC(N)=O)C(C)C)C(C)C | 11.98 | 5.17 | 10.66 | 304772 | 5.96 |
| C[C@@H](NC(=O)[C@@H](N)Cc1ccc(O)cc1)C(=O)N[C@@H](Cc1ccccc1)C(=O)NCC(=O)N[C@@H](Cc1ccc(O)cc1)C(=O)N1CCC[C@H]1C(=O)N[C@@H](CO)C(N)=O [DERMORPHIN] | – | 8.43 | – | – | 10.04 |
| CC(C)[C@H](NC(=O)[C@H](CC(=O)O)NC(=O)[C@H](Cc1ccccc1)NC(=O)[C@@H](C)NC(=O)[C@@H](N)Cc1ccc(O)cc1)C(=O)N[C@H](C(=O)NCC(N)=O)C(C)C [DELTORPHIN C] | 11.59 | 5.26 | – | – | 6.50 |
| Cc1cccc(C)c1C[C@@H](NC(=O)[C@@H](C)NC(=O)[C@@H](N)Cc1ccc(O)cc1)C(=O)N[C@@H](CCC(=O)O)C(=O)N[C@H](C(=O)N[C@H](C(=O)NCC(N)=O)C(C)C)C(C)C | 6.95 | 5.09 | 6.84 | 56 | 5.71 |
